Results reported in ChEMBL document CHEMBL1124703, “Analogues of carbamyl aspartate as inhibitors of dihydroorotase: preparation of boronic acid transition-state analogues and a zinc chelator carbamylhomocysteine” (J Med Chem, 1990).

Assays:
Conditions in all cases: Cricetulus griseus
[1] = target: Multifunctional protein CAD (Homo sapiens) (UniProt P27708); assay: Inhibitory activity against Dihydroorotase (DHO); no reproducible apparent Ki data
[2] = target: Multifunctional protein CAD (Homo sapiens) (UniProt P27708); assay: Inhibitory activity against Dihydroorotase (DHO) using CAD protein at concentrations >=6 mM; no inhibition was observed
NC(=O)NC(CC(=O)O)C(=O)O = assay: Kinetic constant for the inactivation of Dihydroorotase (DHO) at pH 6.0
NC(=O)NC(CCS)C(=O)O = assay: Kinetic constant for the inactivation against Dihydroorotase (DHO) at a concentration of 3 uM

Chain of Multifunctional protein CAD (Homo sapiens) (P27708 whole entry): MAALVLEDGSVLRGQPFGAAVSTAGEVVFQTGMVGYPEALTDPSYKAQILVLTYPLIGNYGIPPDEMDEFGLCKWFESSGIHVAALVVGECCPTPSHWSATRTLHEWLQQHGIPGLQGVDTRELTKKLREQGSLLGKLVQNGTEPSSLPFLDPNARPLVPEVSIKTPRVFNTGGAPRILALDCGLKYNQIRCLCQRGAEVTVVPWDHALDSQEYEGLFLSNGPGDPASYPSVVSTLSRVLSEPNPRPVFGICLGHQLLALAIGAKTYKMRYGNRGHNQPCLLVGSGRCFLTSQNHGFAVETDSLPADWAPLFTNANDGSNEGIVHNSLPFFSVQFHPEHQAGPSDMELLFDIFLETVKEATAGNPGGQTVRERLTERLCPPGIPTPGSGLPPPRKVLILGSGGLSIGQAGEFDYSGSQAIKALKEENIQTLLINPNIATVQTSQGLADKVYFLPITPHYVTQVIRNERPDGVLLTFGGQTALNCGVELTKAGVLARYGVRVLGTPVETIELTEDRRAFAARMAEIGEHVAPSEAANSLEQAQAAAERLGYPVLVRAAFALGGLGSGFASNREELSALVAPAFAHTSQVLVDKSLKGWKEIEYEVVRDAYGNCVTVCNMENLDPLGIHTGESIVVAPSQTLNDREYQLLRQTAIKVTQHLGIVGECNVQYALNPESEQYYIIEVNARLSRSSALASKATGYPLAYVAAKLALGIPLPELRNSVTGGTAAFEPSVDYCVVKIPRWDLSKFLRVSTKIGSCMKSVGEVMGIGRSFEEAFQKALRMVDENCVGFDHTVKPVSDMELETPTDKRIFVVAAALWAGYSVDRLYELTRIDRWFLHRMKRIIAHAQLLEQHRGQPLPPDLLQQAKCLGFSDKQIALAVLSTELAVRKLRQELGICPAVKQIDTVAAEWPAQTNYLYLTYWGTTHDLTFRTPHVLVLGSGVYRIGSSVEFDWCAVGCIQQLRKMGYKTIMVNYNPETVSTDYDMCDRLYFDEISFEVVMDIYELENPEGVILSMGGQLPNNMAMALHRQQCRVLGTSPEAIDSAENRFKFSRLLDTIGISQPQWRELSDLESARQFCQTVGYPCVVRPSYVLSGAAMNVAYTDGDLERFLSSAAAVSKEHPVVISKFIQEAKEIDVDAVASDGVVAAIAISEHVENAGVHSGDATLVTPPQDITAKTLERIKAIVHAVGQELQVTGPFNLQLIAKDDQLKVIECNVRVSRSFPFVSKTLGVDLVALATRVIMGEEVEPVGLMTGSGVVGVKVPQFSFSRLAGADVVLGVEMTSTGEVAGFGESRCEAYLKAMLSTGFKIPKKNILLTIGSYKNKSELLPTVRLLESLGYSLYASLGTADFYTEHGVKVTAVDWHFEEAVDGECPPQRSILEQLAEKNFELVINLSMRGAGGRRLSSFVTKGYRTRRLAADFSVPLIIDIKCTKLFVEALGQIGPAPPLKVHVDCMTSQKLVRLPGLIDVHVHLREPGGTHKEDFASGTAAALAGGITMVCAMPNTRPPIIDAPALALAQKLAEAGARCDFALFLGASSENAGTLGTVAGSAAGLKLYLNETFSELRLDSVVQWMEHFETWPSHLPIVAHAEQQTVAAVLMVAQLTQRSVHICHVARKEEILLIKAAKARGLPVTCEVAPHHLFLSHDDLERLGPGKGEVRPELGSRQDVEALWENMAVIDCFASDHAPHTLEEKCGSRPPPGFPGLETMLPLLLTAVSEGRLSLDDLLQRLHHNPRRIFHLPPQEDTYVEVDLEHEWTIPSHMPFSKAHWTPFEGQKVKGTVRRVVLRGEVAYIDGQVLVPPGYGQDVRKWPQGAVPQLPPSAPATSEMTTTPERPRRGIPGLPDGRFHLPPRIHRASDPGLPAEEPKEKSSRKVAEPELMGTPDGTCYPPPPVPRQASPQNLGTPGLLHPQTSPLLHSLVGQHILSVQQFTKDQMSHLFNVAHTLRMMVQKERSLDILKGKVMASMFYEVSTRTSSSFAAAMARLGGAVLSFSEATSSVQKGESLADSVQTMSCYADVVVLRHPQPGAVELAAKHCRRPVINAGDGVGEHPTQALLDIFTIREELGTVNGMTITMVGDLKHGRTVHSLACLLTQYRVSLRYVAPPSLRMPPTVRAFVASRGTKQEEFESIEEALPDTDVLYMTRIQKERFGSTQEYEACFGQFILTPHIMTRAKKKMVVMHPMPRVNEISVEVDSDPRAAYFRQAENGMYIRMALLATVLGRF

COC(=O)C(CB(O)O)NC(N)=O (centres undefined) was tested, and the inhibition [1] was “no reproducible apparent Ki data”.

For NC(=O)NC(CB(O)O)C(=O)O (centres undefined), the inhibition [2] was “No inhibition”.

In the case of “Multifunctional protein CAD (Homo sapiens), P27708”, the Km (NC(=O)NC(CC(=O)O)C(=O)O) is reported as 50 µM and the kinact (NC(=O)NC(CCS)C(=O)O) is reported as 460000 min⁻¹.
